# Laboratory results from patent US12275731B2, “Azaindole inhibitors of wild-type and mutant forms of LRRK2” (DANA-FARBER CANCER INSTITUTE, INC., priority 2018, dated 2025).
# Columns and labels:
# Test in all cases: KinomeScan profiling
# Type in all cases: binding
# FLT3 = target: T1, FLT3 (Homo sapiens, UniProt P36888); settings: FLT3, 1 μM; read-out: % control
# T1 sequence (P36888 27-993): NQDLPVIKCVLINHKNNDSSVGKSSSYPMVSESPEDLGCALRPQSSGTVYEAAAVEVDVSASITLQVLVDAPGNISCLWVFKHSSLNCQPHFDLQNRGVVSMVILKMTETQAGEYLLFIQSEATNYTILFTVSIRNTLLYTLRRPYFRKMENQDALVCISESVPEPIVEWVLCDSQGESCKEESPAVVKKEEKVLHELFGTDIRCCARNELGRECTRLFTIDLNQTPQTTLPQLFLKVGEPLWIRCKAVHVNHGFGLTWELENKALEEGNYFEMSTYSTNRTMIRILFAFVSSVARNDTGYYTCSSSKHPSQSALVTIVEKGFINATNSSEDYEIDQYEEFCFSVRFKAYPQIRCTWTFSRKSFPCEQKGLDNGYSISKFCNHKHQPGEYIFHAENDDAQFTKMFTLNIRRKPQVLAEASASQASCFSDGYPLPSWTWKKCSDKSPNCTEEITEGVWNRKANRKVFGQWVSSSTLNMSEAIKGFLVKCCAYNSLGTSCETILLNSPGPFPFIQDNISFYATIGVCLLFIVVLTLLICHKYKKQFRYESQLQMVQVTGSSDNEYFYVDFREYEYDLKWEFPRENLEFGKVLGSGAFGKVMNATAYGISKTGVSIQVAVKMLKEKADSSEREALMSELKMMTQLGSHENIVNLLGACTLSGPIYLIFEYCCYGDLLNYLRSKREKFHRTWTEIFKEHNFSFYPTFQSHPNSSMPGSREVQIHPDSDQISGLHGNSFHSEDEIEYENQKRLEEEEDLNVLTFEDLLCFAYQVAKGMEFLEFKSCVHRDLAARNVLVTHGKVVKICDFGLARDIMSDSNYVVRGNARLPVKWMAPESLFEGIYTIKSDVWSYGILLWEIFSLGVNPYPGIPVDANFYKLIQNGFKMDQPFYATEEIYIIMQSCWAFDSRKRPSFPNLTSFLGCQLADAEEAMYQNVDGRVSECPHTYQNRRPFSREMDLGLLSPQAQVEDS
# Method in brief: (§1)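 Compounds were screened at 1 μM in DMSO across a 468-kinase KinomeScan panel. Binding was expressed as % control, scaled between a positive control (0%) and DMSO (100%) using luminescence signal. A value under 35% counted as active.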
# [1] = target: T2, RPS6KA4(Kin.Dom.1-N-terminal) (Homo sapiens, UniProt O75676); settings: read-out: % control
# T2 construct: RPS6KA4(Kin.Dom.1-N-terminal)
# T2 sequence (O75676 33-301 limits assumed): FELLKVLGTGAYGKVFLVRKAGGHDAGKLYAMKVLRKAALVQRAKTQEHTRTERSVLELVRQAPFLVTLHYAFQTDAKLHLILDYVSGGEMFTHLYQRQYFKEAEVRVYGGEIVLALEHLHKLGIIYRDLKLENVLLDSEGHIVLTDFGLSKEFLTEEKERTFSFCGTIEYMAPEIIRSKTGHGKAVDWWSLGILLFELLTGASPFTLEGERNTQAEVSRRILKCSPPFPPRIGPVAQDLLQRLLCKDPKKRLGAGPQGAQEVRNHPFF
# Method in brief: as §1
# SgK110 = target: T3, SgK110 (Homo sapiens, UniProt P0C264); settings: SgK110, 1 μM; read-out: % control
# T3 construct: purchased KinomeScan® (panel service)
# T3 sequence (P0C264 1-359): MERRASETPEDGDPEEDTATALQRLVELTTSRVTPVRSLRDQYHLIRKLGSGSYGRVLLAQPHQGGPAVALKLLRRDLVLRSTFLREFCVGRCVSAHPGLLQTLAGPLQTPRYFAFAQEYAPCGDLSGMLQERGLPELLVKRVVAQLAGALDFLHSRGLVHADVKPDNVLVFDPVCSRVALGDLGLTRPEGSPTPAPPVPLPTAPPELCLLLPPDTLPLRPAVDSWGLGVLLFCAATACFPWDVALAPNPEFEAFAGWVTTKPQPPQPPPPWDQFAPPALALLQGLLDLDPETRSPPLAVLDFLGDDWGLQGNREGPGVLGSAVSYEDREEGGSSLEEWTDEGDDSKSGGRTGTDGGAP
# Method in brief: as §1
# PIK3CA(E545A) = target: T4, PIK3CA(E545A) (Homo sapiens, UniProt P42336, E545A); settings: read-out: % control
# T4 construct: purchased KinomeScan® (panel service)
# T4 sequence (P42336 whole entry E545A): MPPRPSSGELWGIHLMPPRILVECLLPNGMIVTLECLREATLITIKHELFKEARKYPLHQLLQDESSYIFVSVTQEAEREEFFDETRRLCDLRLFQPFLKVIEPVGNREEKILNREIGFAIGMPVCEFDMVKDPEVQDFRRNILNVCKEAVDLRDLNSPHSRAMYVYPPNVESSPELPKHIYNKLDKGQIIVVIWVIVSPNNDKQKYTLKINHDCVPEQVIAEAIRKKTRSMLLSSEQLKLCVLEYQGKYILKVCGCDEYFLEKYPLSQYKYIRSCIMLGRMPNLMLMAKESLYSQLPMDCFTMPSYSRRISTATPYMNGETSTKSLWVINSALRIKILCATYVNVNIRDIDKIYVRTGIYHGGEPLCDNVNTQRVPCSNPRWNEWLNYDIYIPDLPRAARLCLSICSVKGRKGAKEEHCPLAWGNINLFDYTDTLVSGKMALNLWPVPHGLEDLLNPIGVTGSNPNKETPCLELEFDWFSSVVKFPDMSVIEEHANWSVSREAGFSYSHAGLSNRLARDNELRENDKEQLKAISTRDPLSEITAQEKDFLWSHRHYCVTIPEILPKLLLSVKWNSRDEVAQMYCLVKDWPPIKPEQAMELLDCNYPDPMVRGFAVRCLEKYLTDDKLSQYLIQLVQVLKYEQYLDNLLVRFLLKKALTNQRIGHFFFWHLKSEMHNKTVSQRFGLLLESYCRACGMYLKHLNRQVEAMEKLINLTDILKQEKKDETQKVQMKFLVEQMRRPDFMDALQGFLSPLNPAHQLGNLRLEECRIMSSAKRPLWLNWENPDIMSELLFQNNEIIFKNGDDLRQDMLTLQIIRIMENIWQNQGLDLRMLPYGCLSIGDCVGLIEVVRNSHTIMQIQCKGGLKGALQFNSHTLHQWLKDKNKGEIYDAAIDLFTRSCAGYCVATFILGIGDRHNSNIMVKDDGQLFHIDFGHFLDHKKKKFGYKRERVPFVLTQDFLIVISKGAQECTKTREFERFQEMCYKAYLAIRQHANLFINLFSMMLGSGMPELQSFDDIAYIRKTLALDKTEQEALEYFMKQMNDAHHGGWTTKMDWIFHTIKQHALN
# Method in brief: as §1
# SRPK2 = target: T5, SRPK2 (Homo sapiens, UniProt P78362); settings: SRPK2, 1 μM; read-out: % control
# T5 construct: purchased KinomeScan® (panel service)
# T5 sequence (P78362 whole entry): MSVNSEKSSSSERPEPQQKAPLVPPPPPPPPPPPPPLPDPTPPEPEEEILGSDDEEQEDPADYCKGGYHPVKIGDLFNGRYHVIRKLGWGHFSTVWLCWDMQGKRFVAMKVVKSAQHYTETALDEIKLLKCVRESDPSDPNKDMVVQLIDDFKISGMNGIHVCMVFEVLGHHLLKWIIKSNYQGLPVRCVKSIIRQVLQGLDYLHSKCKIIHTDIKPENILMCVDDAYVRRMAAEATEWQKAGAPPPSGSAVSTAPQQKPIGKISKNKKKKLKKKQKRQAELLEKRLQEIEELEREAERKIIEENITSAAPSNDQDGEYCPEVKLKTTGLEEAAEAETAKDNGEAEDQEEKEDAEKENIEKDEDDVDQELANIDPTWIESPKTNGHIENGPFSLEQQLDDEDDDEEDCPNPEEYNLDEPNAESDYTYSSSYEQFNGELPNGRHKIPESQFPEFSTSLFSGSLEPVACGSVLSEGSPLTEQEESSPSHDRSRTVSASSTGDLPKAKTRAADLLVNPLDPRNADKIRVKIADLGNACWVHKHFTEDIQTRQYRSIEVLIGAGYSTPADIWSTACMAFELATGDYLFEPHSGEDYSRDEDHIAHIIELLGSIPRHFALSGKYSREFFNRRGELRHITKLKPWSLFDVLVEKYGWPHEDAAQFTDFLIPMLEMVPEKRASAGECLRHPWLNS
# Method in brief: as §1
# CDKL3 = CDKL3 (Homo sapiens, UniProt Q8IVW4); settings: CDKL3, 1 μM; read-out: % control
# Sequence of CDKL3 (Q8IVW4 whole entry): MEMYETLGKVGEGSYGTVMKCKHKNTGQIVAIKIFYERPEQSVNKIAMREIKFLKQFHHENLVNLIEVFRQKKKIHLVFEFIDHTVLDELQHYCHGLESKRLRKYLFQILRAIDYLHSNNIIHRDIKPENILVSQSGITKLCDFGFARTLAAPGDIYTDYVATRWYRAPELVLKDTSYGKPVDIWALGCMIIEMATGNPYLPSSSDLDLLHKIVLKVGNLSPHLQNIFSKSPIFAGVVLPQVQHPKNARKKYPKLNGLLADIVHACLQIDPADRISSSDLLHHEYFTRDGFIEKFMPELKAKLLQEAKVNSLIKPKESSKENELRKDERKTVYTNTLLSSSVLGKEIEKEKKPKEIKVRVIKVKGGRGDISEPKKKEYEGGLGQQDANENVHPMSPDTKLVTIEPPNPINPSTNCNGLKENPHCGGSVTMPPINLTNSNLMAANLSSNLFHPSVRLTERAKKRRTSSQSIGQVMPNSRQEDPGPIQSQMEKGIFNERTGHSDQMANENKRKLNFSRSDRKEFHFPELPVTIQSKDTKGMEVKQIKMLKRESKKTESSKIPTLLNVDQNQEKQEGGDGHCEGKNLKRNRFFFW
# Method in brief: as §1
# IKK-alpha = target: T6, IKK-alpha (Homo sapiens, UniProt O15111); settings: read-out: % control
# T6 sequence (O15111 1-745): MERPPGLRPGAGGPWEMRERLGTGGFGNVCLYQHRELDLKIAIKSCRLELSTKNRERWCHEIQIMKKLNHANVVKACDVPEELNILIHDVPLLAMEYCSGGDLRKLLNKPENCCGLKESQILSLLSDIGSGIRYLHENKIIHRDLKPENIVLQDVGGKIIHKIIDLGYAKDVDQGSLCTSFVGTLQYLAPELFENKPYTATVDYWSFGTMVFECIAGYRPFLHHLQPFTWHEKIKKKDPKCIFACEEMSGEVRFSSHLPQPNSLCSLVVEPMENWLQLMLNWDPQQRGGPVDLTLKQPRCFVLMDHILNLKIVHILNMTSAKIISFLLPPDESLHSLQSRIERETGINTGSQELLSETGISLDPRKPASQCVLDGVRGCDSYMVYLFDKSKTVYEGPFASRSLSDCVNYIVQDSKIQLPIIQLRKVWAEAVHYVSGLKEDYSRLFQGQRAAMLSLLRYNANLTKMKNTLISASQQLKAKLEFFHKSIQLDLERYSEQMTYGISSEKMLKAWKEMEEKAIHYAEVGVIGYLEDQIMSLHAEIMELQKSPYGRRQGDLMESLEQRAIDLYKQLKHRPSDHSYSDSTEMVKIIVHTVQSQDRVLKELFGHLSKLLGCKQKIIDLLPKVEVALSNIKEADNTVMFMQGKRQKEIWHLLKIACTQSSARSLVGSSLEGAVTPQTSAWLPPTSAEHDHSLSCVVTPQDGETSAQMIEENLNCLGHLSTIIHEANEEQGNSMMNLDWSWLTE
# Method in brief: as §1
compound,measurement,setting,value
"CNc1c(-c2ccc(C(=O)N3CCC(N4CCOCC4)CC3)cc2)cnc2[nH]cc(Cl)c12 [Compound 96, (4-(3-chloro-4-(methylamino)-1H-pyrrolo[2,3-b]pyridin-5-yl)phenyl)(4-morpholinopiperidin-1-yl)methanone]",remaining binding at 1 µM,FLT3,6.7%
same,remaining binding at 1 µM,[1],100%
same,remaining binding at 1 µM,SgK110,100%
same,remaining binding at 1 µM,PIK3CA(E545A),62%
same,remaining binding at 1 µM,SRPK2,16%
same,remaining binding at 1 µM,CDKL3,100%
same,remaining binding at 1 µM,IKK-alpha,14%
"O=C(c1ccc(-c2cnc3[nH]cc(Cl)c3c2NC2CCCC2)cc1)N1CCC(N2CCOCC2)CC1 [Compound 101, (4-(3-chloro-4-(cyclopentylamino)-1H-pyrrolo[2,3-b]pyridin-5-yl)phenyl)(4-morpholinopiperidin-1-yl)methanone]",remaining binding at 1 µM,FLT3,4.9%
same,remaining binding at 1 µM,[1],84%
same,remaining binding at 1 µM,SgK110,100%
same,remaining binding at 1 µM,PIK3CA(E545A),98%
same,remaining binding at 1 µM,SRPK2,60%
same,remaining binding at 1 µM,CDKL3,100%
same,remaining binding at 1 µM,IKK-alpha,49%
"CNc1c(-c2cnn([C@H]3CCN(C(C)=O)C[C@@H]3F)c2)cnc2[nH]cc(Cl)c12 [Compound 77, 1-((3S,4S)-4-(4-(3-chloro-4-(methylamino)-1H-pyrrolo[2,3-b]pyridin-5-yl)-1H-pyrazol-1-yl)-3-fluoropiperidin-1-yl)ethan-1-one]",remaining binding at 1 µM,FLT3,3.3%
same,remaining binding at 1 µM,[1],97%
same,remaining binding at 1 µM,SgK110,100%
same,remaining binding at 1 µM,PIK3CA(E545A),80%
same,remaining binding at 1 µM,SRPK2,12%
same,remaining binding at 1 µM,CDKL3,94%
same,remaining binding at 1 µM,IKK-alpha,17%
